From ChEMBL document CHEMBL1201862, “PubChem BioAssay data set” (2004)
Activity calls are given as the source filed them.

What was measured:
[1] = molecular target: T1, Small ubiquitin-related modifier 1 (Homo sapiens, UniProt P63165); assay: inhibitors of SUMO1 partner interactions, dose response, biochemical, FRET (AID 624383); format: functional; conditions: read-out: IC50_Mean
[2] = molecular target: T2, Carboxy-terminal domain RNA polymerase II polypeptide A small phosphatase 1 (Homo sapiens, UniProt Q9GZU7); assay: inhibitors of CTDSP1, concentration-response testing, biochemical assay, absorbance-based, actives from ultra-high-throughput screening (AID 540297); format: functional
T2 sequence (Q9GZU7 whole entry): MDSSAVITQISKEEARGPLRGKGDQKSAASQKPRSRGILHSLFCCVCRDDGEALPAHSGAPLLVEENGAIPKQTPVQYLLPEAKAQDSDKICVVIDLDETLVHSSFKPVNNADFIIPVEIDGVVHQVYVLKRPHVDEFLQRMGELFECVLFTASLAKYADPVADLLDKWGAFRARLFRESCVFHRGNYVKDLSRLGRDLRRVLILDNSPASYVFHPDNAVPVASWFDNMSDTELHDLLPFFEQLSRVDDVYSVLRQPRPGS

[3] = ARNT/TACC3 interaction disruptors, potency, confirmation, biochemical, AlphaScreen, cherry-picked samples (AID 651703); format: functional, Homo sapiens;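 further: His-tagged ARNT PAS-B domain paired with GST-TACC3 E629A dimer coactivator fragment; potency of inhibitors that break up the complex and lower AlphaScreen signal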
Vero = Vero cell cytotoxicity, cytotoxicity control for flavivirus capping enzyme inhibitors (AID 588742); format: functional; conditions: Chlorocebus sabaeus
[4] = molecular target: T1, Small ubiquitin-related modifier 1; assay: inhibitors of SUMO1 peptide binding, dose response, biochemical, fluorescence polarization, uHTS hits (AID 624382); format: functional; conditions: read-out: IC50_Mean
Genome polyprotein = Genome polyprotein (dengue virus type 2, UniProt P29990); assay: Dengue-2 NS5 methyltransferase inhibitors, primary screen, biochemical, confirmation dose response (AID 588689); format: functional
[5] = molecular target: T3, Dual specificity protein phosphatase 3 (Homo sapiens, UniProt P51452); assay: VHR1 phosphatase inhibitors, biochemical (AID 1878)
T3 sequence (P51452 whole entry): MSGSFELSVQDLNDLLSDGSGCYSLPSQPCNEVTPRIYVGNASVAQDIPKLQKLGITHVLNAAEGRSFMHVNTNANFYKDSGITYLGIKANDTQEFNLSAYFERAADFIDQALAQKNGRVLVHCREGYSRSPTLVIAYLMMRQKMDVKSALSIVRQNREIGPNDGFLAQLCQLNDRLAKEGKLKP

[6] = molecular target: T4, Dual specificity protein phosphatase 6 (Rattus norvegicus, UniProt Q64346); assay: MKP-3 phosphatase inhibitors, primary screen, biochemical, rat enzyme, in vitro (AID 425)
T4 sequence (Q64346 whole entry): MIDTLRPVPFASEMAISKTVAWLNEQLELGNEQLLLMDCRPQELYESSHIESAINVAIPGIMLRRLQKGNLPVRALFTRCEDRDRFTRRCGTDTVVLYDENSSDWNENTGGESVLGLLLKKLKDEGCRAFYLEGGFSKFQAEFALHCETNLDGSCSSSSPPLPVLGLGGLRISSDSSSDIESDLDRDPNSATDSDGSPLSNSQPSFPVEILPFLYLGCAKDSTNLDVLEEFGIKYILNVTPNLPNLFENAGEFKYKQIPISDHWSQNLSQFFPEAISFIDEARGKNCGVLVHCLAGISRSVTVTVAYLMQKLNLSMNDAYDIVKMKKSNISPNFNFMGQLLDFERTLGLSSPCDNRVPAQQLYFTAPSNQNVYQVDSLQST

[7] = molecular target: T3, Dual specificity protein phosphatase 3; assay: VHR1 phosphatase inhibitors, primary screen, biochemical, absorbance, uHTS (AID 1654)
Exodeoxyribonuclease V = Exodeoxyribonuclease V (Escherichia coli (strain K12), UniProt P04993+P07648+P08394); assay: E. coli RecBCD inhibitors, dose response, counter-screen for AddAB inhibitor project, absorbance, V66 E. coli, mutant T4 phage (AID 492957); format: functional, cell-based, Escherichia coli str. K-12 substr. MG1655
Sequence of Exodeoxyribonuclease V (P04993 whole entry): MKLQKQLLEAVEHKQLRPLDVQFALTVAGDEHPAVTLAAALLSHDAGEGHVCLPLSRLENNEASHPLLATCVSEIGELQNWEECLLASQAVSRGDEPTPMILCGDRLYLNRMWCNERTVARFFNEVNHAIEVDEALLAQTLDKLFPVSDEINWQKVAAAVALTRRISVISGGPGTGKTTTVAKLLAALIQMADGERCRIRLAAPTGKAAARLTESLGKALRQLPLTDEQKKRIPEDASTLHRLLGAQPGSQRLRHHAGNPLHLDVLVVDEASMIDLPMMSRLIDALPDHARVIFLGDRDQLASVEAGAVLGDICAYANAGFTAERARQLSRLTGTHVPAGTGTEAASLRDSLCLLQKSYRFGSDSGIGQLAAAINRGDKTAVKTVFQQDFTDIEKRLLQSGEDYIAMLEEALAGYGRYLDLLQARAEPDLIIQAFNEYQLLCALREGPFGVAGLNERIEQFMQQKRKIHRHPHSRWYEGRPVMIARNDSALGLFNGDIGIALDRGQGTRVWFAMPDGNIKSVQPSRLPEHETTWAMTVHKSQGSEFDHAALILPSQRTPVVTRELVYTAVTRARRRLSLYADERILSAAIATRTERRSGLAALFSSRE
Sequence of Exodeoxyribonuclease V (P07648 whole entry): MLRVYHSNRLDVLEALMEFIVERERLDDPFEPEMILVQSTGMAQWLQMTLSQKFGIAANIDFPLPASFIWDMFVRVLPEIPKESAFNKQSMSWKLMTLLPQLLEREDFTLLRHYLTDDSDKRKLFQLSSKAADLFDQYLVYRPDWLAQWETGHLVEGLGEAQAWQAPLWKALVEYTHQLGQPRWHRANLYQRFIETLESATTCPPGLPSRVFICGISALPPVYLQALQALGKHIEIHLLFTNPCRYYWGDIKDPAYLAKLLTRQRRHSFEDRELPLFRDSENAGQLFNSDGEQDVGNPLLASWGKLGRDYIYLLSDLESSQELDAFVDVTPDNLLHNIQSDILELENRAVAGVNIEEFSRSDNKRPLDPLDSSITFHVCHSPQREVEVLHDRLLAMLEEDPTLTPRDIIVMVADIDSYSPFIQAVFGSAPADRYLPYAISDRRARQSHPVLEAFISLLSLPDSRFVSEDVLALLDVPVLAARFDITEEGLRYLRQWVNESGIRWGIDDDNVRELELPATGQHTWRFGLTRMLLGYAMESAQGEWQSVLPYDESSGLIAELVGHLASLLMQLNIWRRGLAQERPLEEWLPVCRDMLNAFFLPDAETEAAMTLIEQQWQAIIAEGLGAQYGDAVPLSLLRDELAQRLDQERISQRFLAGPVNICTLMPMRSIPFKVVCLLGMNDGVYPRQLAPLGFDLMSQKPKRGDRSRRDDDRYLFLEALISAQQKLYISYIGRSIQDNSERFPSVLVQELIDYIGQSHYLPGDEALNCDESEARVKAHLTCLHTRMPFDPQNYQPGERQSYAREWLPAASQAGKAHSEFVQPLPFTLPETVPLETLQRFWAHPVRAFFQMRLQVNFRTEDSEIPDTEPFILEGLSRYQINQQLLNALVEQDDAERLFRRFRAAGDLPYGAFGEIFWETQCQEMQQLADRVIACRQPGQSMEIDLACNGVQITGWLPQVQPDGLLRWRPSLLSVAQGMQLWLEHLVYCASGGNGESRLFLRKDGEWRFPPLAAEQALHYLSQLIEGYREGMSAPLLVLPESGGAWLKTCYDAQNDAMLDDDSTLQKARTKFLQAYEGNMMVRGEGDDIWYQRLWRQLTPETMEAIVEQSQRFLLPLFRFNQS
Sequence of Exodeoxyribonuclease V (P08394 whole entry): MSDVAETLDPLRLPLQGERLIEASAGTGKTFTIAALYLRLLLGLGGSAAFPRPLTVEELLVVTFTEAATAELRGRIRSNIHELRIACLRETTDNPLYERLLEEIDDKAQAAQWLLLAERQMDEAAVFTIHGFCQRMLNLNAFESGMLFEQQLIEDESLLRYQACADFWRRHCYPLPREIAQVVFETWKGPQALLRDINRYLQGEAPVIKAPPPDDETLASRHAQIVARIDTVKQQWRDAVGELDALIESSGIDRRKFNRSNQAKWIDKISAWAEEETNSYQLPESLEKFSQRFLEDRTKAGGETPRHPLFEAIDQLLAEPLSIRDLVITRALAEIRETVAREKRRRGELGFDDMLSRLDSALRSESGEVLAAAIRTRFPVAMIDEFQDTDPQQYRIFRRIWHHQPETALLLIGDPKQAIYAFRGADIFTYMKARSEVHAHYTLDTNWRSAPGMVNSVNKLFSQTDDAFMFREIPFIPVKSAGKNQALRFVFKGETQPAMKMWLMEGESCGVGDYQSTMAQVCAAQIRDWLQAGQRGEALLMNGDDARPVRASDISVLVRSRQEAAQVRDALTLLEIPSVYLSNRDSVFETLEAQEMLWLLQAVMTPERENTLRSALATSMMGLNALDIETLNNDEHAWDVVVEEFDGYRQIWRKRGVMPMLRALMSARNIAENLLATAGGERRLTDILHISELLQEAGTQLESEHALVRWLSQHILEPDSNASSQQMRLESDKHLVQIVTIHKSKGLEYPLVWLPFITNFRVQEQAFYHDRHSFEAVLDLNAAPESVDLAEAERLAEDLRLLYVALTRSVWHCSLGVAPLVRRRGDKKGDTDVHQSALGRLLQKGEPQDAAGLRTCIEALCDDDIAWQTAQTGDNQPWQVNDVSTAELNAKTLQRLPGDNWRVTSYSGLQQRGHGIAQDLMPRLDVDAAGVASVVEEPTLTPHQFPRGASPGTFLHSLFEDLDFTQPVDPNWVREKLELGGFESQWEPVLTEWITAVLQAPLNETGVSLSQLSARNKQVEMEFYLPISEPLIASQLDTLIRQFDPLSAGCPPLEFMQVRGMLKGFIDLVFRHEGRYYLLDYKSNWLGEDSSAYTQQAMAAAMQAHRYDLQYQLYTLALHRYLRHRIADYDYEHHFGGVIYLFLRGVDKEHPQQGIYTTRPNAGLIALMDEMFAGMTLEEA

[8] = Counterscreen for AddAB inhibitors: absorbance-based bacterial cell-based high throughput dose response assay for inhibitors of bacterial viability. [Related pubchem assays (depositor defined):AID435030, AID449728, AID449731, AID488942, AID488955, AID488956]; format: functional
[9] = molecular target: Nucleotide-binding oligomerization domain-containing protein 2 (Homo sapiens, UniProt Q9HC29); assay: NOD2 signaling inhibitors, cell-based, luminescence, uHTS, HEK293 (AID 1566); format: functional
Sequence of Nucleotide-binding oligomerization domain-containing protein 2 (Q9HC29 whole entry, the tested form may be a part): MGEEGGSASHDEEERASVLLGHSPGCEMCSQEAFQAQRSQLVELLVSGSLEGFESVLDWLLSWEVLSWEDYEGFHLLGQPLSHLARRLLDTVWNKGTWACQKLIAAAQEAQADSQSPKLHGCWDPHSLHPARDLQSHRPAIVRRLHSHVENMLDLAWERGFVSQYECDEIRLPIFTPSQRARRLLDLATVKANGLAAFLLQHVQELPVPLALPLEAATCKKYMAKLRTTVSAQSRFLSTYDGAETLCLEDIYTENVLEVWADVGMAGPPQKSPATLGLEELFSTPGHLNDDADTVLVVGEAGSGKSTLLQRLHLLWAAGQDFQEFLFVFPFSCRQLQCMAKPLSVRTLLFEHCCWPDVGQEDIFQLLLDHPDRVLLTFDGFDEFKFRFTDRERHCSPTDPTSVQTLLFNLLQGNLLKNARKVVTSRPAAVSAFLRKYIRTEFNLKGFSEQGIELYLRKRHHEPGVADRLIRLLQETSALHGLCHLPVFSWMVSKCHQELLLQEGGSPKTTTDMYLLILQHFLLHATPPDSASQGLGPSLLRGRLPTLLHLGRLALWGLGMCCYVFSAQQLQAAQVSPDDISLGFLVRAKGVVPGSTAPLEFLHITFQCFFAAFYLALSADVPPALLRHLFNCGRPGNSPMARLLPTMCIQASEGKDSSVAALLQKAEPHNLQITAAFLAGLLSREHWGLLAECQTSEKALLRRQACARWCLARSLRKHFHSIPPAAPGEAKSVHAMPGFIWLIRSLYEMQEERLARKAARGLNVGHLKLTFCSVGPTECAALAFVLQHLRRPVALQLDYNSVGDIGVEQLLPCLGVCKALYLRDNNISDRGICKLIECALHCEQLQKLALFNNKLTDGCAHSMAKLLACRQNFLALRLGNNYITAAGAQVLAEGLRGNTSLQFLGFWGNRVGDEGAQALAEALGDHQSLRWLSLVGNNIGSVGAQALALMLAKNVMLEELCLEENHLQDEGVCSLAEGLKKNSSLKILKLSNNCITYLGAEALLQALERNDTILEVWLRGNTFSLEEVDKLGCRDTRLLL

[10] = HepG2 cell cytotoxicity, dose response, cytotoxicity control for Shn3 inhibitor project, CellTiter-Glo, cherry-picked (AID 624134); format: functional, cell-based
[11] = control 3'UTR Renilla luciferase suppression, dose response, counter-screen for Shn3 inhibitor project, cell-based, Clone20-Shn3RL, cherry-picked (AID 624133); format: functional
[12] = Shn3 3'UTR reporter inhibitors, dose response, cell-based, Clone20 osteoblasts, firefly luciferase, cherry-picked (AID 624132); format: functional;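 further: firefly luciferase luminescence from reporter carrying the Shn3 3'UTR in osteoblasts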
[13] = molecular target: Luciferin 4-monooxygenase (Photinus pyralis, UniProt P08659); assay: firefly luciferase enzyme inhibitors, dose response, biochemical, luminescence (AID 1891)
HEK293 [14] = assay: NOD2 signaling inhibitors in MDP-stimulated cells, cell-based, uHTS, luminescence (AID 2001); format: functional; conditions: Homo sapiens
[15] = Luminescence Cell-Based Dose Confirmation HTS to Identify Inhibitors of Platelet Dense Granule Release. [Related pubchem assays: 1663 (Primary HTS), 1678 (Summary of Project)]; format: functional
HEK293 [16] = assay: cells; format: functional, cell-based; conditions: Homo sapiens
HEK293 [17] = assay: cells; format: functional, cell-based; conditions: Homo sapiens; remark: listed apart in the source
HEK293 [18] = assay: cells; format: functional, cell-based; conditions: Homo sapiens; remark: listed apart in the source
HEK293 [19] = assay: NOD1 signaling inhibitors, primary screen, cell-based, luminescence, uHTS (AID 1578); format: functional; conditions: Homo sapiens
[20] = molecular target: T5, G-protein coupled receptor 55 (Homo sapiens, UniProt Q9Y2T6); assay: SAR analysis of selective Agonists of GPR55 using an Image-Based Assay. [Related pubchem assays (depositor defined):AID1961, AID1965]; format: functional
T5 sequence (Q9Y2T6 whole entry): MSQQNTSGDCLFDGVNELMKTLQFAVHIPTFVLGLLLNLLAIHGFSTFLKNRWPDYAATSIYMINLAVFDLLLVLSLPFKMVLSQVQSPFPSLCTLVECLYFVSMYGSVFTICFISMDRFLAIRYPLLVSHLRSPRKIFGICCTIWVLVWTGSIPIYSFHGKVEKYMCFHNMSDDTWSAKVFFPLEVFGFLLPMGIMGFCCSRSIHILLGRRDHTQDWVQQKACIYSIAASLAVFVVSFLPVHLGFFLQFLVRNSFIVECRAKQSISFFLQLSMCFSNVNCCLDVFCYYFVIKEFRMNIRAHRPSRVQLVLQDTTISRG

Cannabinoid receptor 2 [21] = molecular target: T6, Cannabinoid receptor 2 (Homo sapiens, UniProt P34972); assay: SAR analysis of agonists of the Cannabinoid Receptor 2 using an Image-Based Assay - Set 2. [Related pubchem assays (depositor defined):AID1961, AID1965]; format: functional
T6 sequence (P34972 whole entry): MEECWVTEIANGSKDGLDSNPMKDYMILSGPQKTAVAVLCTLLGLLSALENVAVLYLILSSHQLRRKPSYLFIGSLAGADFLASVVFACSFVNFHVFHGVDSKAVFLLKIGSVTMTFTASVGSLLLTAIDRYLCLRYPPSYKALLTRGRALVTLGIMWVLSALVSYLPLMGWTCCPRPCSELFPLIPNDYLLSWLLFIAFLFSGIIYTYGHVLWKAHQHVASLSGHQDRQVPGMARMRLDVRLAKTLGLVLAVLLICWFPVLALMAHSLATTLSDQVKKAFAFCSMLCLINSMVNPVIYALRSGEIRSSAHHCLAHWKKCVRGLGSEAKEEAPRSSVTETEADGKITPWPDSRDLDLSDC

Cannabinoid receptor 2 [22] = molecular target: T6, Cannabinoid receptor 2; assay: SAR analysis of antagonists of the Cannabinoid Receptor 2 using an Image-Based Assay - Set 2. [Related pubchem assays (depositor defined):AID1961, AID1965]; format: functional
Cannabinoid receptor 1 = Cannabinoid receptor 1 (Homo sapiens, UniProt P21554); assay: SAR analysis of antagonists of the Cannabinoid Receptor 1 using an Image-Based Assay. [Related pubchem assays (depositor defined):AID1961, AID1965]; format: functional
[23] = molecular target: T5, G-protein coupled receptor 55; assay: GPR55 agonists via beta-arrestin recruitment, primary screen, imaging, U2OS cells, beta-arrestin-GFP redistribution (AID 1961); format: functional
[24] = molecular target: T7, Ubiquitin-conjugating enzyme E2 N (Homo sapiens, UniProt P61088); format: functional
T7 sequence (P61088 whole entry): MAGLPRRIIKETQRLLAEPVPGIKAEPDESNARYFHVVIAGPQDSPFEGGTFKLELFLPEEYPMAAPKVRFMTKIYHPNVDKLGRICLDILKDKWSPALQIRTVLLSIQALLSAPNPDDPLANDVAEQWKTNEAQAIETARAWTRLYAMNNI

Bcl-2-related protein A1 = molecular target: T8, Bcl-2-related protein A1 (Mus musculus, UniProt Q07440); format: functional;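 further: confirmatory dose–response counterscreen on Bfl-1, used to check hits from a UBC13 polyubiquitin inhibitor campaign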
T8 sequence (Q07440 whole entry): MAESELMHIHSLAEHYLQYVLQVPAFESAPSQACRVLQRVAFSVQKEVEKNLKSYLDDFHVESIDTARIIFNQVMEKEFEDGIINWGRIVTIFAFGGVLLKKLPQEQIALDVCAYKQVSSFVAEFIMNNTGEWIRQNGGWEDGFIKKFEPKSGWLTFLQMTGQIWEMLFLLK

[25] = molecular target: T7, Ubiquitin-conjugating enzyme E2 N; format: functional; remark: listed apart in the source
[26] = molecular target: T9, DNA repair protein RAD52 homolog (Homo sapiens, UniProt P43351); format: functional, biochemical
T9 sequence (P43351 whole entry): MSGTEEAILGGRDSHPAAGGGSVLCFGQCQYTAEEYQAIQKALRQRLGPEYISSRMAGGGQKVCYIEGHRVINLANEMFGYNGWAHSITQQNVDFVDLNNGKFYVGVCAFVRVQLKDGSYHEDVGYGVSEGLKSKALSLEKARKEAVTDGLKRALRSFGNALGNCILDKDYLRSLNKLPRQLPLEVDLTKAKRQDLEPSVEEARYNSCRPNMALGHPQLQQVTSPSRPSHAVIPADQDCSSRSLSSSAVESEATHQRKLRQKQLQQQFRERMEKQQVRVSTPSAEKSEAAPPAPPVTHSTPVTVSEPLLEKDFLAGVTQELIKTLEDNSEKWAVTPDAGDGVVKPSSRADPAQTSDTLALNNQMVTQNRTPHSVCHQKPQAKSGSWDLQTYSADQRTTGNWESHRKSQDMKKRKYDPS

HEK293 [27] = assay: inhibitors of LMP1-driven NF-kB reporter, dose response, cell-based, HEK293, luciferase, cherry-pick (AID 588343); format: functional; conditions: Homo sapiens
[28] = molecular target: Heat shock protein HSP 90-alpha (Homo sapiens, UniProt P07900); format: functional, organism-based
cells [29] = format: functional, cell-based
cells [30] = format: functional, cell-based; remark: listed apart in the source

T1 sequence (P63165 whole entry, the tested form may be a part): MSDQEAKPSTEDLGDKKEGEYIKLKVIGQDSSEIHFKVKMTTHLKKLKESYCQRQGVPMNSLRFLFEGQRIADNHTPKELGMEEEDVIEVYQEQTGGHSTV

Structure (SMILES): Cc1c(CCC(=O)O)c(=O)oc2c(C)c3occ(-c4ccc(Br)cc4)c3cc12
- IC50 [1]: 12.6 µM (active)
- IC50 [2]: 3.57 µM (active)
- AC50 [3]: 99.5 µM (active)
- CC50 (Vero): > 40 µM (active)
- IC50 [4]: > 66.6 µM (inactive)
- IC50 (Genome polyprotein): 33.2 µM (active)
- IC50 [5]: 11.3 µM (active)
- IC50 [6]: 69.2 µM (active)
- IC50 [7]: 11.1 µM (active)

Structure (SMILES): COc1ccc(OCC(O)CNc2ccc(Br)cc2)cc1 (stereo not drawn)
- IC50 (Exodeoxyribonuclease V): > 119 µM (inactive)
- IC50 [8]: > 119 µM (inactive)

Structure (SMILES): CCC1CCCCN1S(=O)(=O)c1ccc(NC(=O)c2ccncc2)cc1 (stereo not drawn)
- EC50 [9]: > 20 µM (inactive)
- AC50 [10]: 4.88 µM (active)
- AC50 [11]: 16.5 µM (active)
- AC50 [12]: 3.43 µM (active)
- EC50 [13]: > 112 µM (not active)
- IC50 (HEK293 [14]): 11.7 µM (inactive)
- EC50 [15]: > 112 µM (not active)
- IC50 (HEK293 [16]): 8.23 µM (active)
- IC50 (HEK293 [17]): > 20 µM (inactive)
- IC50 (HEK293 [18]): 19.3 µM (active)
- EC50 (HEK293 [19]): 5.51 µM (active)

Structure (SMILES): COc1ccc(CCNc2oc(COc3ccccc3Cl)nc2C#N)cc1OC
- EC50 [9]: 16 µM (active)
- IC50 (HEK293 [14]): 8.33 µM (active)
- IC50 (HEK293 [16]): 8.53 µM (active)
- IC50 (HEK293 [17]): > 20 µM (inactive)
- IC50 (HEK293 [18]): 11.1 µM (active)
- EC50 (HEK293 [19]): 14 µM (active)

Structure (SMILES): C/C(C=NNC(=O)c1nnn(-c2nonc2N)c1CN1CCC(C)CC1)=C/c1ccccc1
- EC50 [20]: 0.681 µM (active)
- EC50 (Cannabinoid receptor 2 [21]): > 32 µM (inactive)
- IC50 (Cannabinoid receptor 2 [22]): > 32 µM (inactive)
- IC50 (Cannabinoid receptor 1): > 32 µM (inactive)

Structure (SMILES): O=C(CSc1nc2ccccc2s1)N1c2ccccc2Sc2ccc(C(F)(F)F)cc21
- EC50 [20]: 1.17 µM (active)
- EC50 (Cannabinoid receptor 2 [21]): < 0.062 µM (active)
- IC50 (Cannabinoid receptor 2 [22]): > 32 µM (inactive)
- IC50 (Cannabinoid receptor 1): > 32 µM (inactive)
- EC50 [23]: 1 µM (active)

Structure (SMILES): NC(=S)N=Nc1c(O)n(C2OC(=O)c3ccccc32)c2ccccc12 (stereo not drawn)
- IC50 [24]: 3.62 µM (active)
- IC50 (Bcl-2-related protein A1): > 20 µM (inactive)
- IC50 [25]: 2.38 µM (active)

Structure (SMILES): N[C@@H](CO)c1cn([C@@H](Cc2cc3ccccc3[nH]2)C(=O)N2CCNCC2)nn1
- IC50 [24]: 12.3 µM (active)
- AC50 [26]: 3.52 µM (active)
- IC50 (Bcl-2-related protein A1): > 20 µM (inactive)
- IC50 [25]: 10.9 µM (active)

Structure (SMILES): CC(C)C(=O)NC(c1ccc(Cl)cc1Cl)c1ccc2cccnc2c1O (stereo not drawn)
- IC50 (Exodeoxyribonuclease V): > 119 µM (inactive)
- AC50 [10]: 1.11 µM (active)
- AC50 [11]: 1.6 µM (active)
- AC50 [12]: 0.691 µM (active)
- AC50 (HEK293 [27]): 4.52 µM (active)
- AC50 [28]: 25.5 µM (active)
- EC50 (cells [29]): 7.49 µM (active)
- IC50 [8]: > 119 µM (inactive)
- EC50 (cells [30]): > 350 µM (not active)
